According to patent US20250145594A1, “MODULATORS OF THE INTEGRATED STRESS PATHWAY” (Calico Life Sciences LLC, priority 2020, published 2025):

What follows are compounds tested on ATF4 luciferase reporter in HEK293T cells (assay: ATF4-Luc assay (in vitro model of VWMD)). Settings: Homo sapiens, HEK-293T, 7 h, HEK293T cells carrying the ATF4 luciferase reporter, 1 μg/mL tunicamycin, One Glo luminescence.
Type: cell-based, human
In short: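 Stable HEK293T line expressing firefly luciferase behind the human ATF4 5′-UTR, treated with 1 μg/mL tunicamycin plus compound for 7 hours. Luminescence read with One Glo; EC50 determined.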

Question: `O=C(NC12CC(n3cnc(C4CC(OC(F)(F)F)C4)c3)(C1)C2)[C@H]1C[C@@H](O)c2cc(C(F)(F)F)ccc2O1` (stereo partly drawn) [Compound 471, (2R,4R)-4-hydroxy-N-(3-{4-[(1s,3S)-3-(trifluoromethoxy)cyclobutyl]-1H-imidazol-1-yl}bicyclo[1.1.1]pentan-1-yl)-6-(trifluoromethyl)-3,4-dihydro-2H-1-benzopyran-2-carboxamide] was tested. Which EC50 did it give?
Answer: Its EC50 is under 10 nM.

Question: Which EC50 does the source give for `COc1cc2cn(C34CC(NC(=O)[C@H]5C[C@@H](O)c6cc(Cl)c(F)cc6O5)(C3)C4)nc2cn1` [Compound 498, (2R,4R)-6-chloro-7-fluoro-4-hydroxy-N-[3-(5-methoxy-2H-pyrazolo[3,4-c]pyridin-2-yl)bicyclo[1.1.1]pentan-1-yl]-3,4-dihydro-2H-1-benzopyran-2-carboxamide] here?
Answer: Its EC50 is 10 to 50 nM.

Question: Which EC50 does the source give for `O=C(NC12CC(n3cc(C4CCN(CC(F)(F)F)CC4)cn3)(C1)C2)[C@H]1C[C@@H](O)c2cc(Cl)ccc2O1` [Compound 580, (2R,4R)-6-chloro-4-hydroxy-N-(3-{4-[1-(2,2,2-trifluoroethyl)piperidin-4-yl]-1H-pyrazol-1-yl}bicyclo[1.1.1]pentan-1-yl)-3,4-dihydro-2H-1-benzopyran-2-carboxamide] here?
Answer: The EC50 was under 10 nM.

Question: For `O=C(NC12CC(n3cc(C(=O)N4CC(OC(F)(F)F)C4)cn3)(C1)C2)[C@H]1C[C@@H](O)c2cc(Cl)ccc2O1` [Compound 341, (2R,4R)-6-chloro-4-hydroxy-N-(3-{4-[3-(trifluoromethoxy)azetidine-1-carbonyl]-1H-pyrazol-1-yl}bicyclo[1.1.1]pentan-1-yl)-3,4-dihydro-2H-1-benzopyran-2-carboxamide], which EC50 is on record?
Answer: Its EC50 is 10 to 50 nM.

Question: Which EC50 does the source give for `O=C(NC12CC(n3cc(-c4ccc(OC(F)(F)F)cn4)cn3)(C1)C2)[C@H]1C[C@@H](O)c2cc(C(F)(F)F)c(F)cc2O1` [Compound 485, (2R,4R)-7-fluoro-4-hydroxy-N-(3-{4-[5-(trifluoromethoxy)pyridin-2-yl]-1H-pyrazol-1-yl}bicyclo[1.1.1]pentan-1-yl)-6-(trifluoromethyl)-3,4-dihydro-2H-1-benzopyran-2-carboxamide] here?
Answer: Its EC50 is under 10 nM.

Question: `O=C(NC12CC(n3cc(-c4ccc(OC(F)(F)F)c(F)c4)cn3)(C1)C2)[C@@H]1C[C@@H](O)c2cc(Cl)ccc2O1` [Compound 306, (2S,4R)-6-chloro-N-(3-{4-[3-fluoro-4-(trifluoromethoxy)phenyl]-1H-pyrazol-1-yl}bicyclo[1.1.1]pentan-1-yl)-4-hydroxy-3,4-dihydro-2H-1-benzopyran-2-carboxamide] was tested. Which EC50 did it give?
Answer: The EC50 was under 10 nM.

Question: How did the EC50 turn out when `O=C(CO[C@H]1C[C@@H](OC(F)(F)F)C1)NC12CC(NC(=O)[C@H]3C[C@H](O)c4cc(Cl)c(Cl)cc4O3)(C1)C2` [Compound 495, (2R,4S)-6,7-dichloro-4-hydroxy-N-[3-(2-{[(1s,3S)-3-(trifluoromethoxy)cyclobutyl]oxy}acetamido)bicyclo[1.1.1]pentan-1-yl]-3,4-dihydro-2H-1-benzopyran-2-carboxamide] was run?
Answer: Its EC50 is under 10 nM.

Question: For `O=C(COc1ccc(C(F)(F)F)c(F)c1)NC12CC(n3cc(C(=O)N4CC[C@H](OC(F)(F)F)C4)cn3)(C1)C2` [Compound 621, 2-[3-fluoro-4-(trifluoromethyl)phenoxy]-N-(3-{4-[(3S)-3-(trifluoromethoxy)pyrrolidine-1-carbonyl]-1H-pyrazol-1-yl}bicyclo[1.1.1]pentan-1-yl)acetamide], which EC50 is on record?
Answer: Its EC50 is under 10 nM.

Question: For `O=C(NC12CC(n3cc(-c4cnn(CC(F)(F)F)c4)cn3)(C1)C2)[C@H]1C[C@@H](O)c2cc(Cl)c(Cl)cc2O1` [Compound 565, (2R,4R)-6,7-dichloro-4-hydroxy-N-{3-[1′-(2,2,2-trifluoroethyl)-1H,1′H-[4,4′-bipyrazol]-1-yl]bicyclo[1.1.1]pentan-1-yl}-3,4-dihydro-2H-1-benzopyran-2-carboxamide], which EC50 is on record?
Answer: The EC50 was under 10 nM.

Question: How did the EC50 turn out when `O=C(NC12CC(n3cc(-c4ccc(C(F)(F)F)cn4)cn3)(C1)C2)[C@H]1C[C@H](O)c2cc(C(F)(F)F)ccc2O1` [Compound 549, (2R,4S)-4-hydroxy-6-(trifluoromethyl)-N-(3-{4-[5-(trifluoromethyl)pyridin-2-yl]-1H-pyrazol-1-yl}bicyclo[1.1.1]pentan-1-yl)-3,4-dihydro-2H-1-benzopyran-2-carboxamide] was run?
Answer: The EC50 was under 10 nM.

Question: With `O=C(NC12CC(n3cc(-c4ccc(C(F)(F)F)cn4)cn3)(C1)C2)[C@H]1C[C@H](O)c2cc(Cl)ccc2O1` [Compound 546, (2R,4S)-6-chloro-4-hydroxy-N-(3-{4-[5-(trifluoromethyl)pyridin-2-yl]-1H-pyrazol-1-yl}bicyclo[1.1.1]pentan-1-yl)-3,4-dihydro-2H-1-benzopyran-2-carboxamide] as the compound, how does the EC50 read?
Answer: Its EC50 is 10 to 50 nM.

Question: Which EC50 does the source give for `Cn1nc(C23CC(NC(=O)COc4ccc(Cl)c(F)c4)(C2)C3)cc1OC[C@H]1C[C@@H](OC(F)(F)F)C1` [Compound 387, 2-(4-chloro-3-fluorophenoxy)-N-[3-(1-methyl-5-{[cis-3-(trifluoromethoxy)cyclobutyl]methoxy}-1H-pyrazol-3-yl)bicyclo[1.1.1]pentan-1-yl]acetamide] here?
Answer: The EC50 was 50 to 250 nM.

Question: With `O=C(N[C@H]1CC[C@H](n2cc(OCCOC(F)(F)F)cn2)CC1)[C@H]1C[C@@H](O)c2ccccc2O1` [Compound 637, (2R,4R)-4-hydroxy-N-[(1r,4R)-4-{4-[2-(trifluoromethoxy)ethoxy]-1H-pyrazol-1-yl}cyclohexyl]-3,4-dihydro-2H-1-benzopyran-2-carboxamide] as the compound, how does the EC50 read?
Answer: Its EC50 is 50 to 250 nM.

Question: `O=C(CO[C@H]1C[C@@H](OC(F)(F)F)C1)NC12CC(NC(=O)[C@@H]3C[C@@H](O)c4cc(Cl)c(F)cc4O3)(C1)C2` [Compound 491, (2S,4R)-6-chloro-7-fluoro-4-hydroxy-N-[3-(2-{[(1s,3R)-3-(trifluoromethoxy)cyclobutyl]oxy}acetamido)bicyclo[1.1.1]pentan-1-yl]-3,4-dihydro-2H-1-benzopyran-2-carboxamide] was tested. Which EC50 did it give?
Answer: Its EC50 is under 10 nM.

Question: For `O=C(NC12CC(n3cc(OCCOC(F)(F)F)cn3)(C1)C2)[C@H]1C[C@@H](O)c2cc(Cl)ccc2O1` [Compound 412, (2R,4R)-6-chloro-4-hydroxy-N-(3-{4-[2-(trifluoromethoxy)ethoxy]-1H-pyrazol-1-yl}bicyclo[1.1.1]pentan-1-yl)-3,4-dihydro-2H-1-benzopyran-2-carboxamide], which EC50 is on record?
Answer: Its EC50 is under 10 nM.

Question: For `O=C(NC12CC(n3cc(-c4ccc(Cl)c(F)c4)nn3)(C1)C2)[C@H]1C[C@@H](O)c2cc(Cl)ccc2O1` [Compound 358, (2R,4R)-6-chloro-N-{3-[4-(4-chloro-3-fluorophenyl)-1H-1,2,3-triazol-1-yl]bicyclo[1.1.1]pentan-1-yl}-4-hydroxy-3,4-dihydro-2H-1-benzopyran-2-carboxamide], which EC50 is on record?
Answer: The EC50 was under 10 nM.

Question: How did the EC50 turn out when `O=C(NC12CC(n3cc(-c4ccc(OC(F)(F)F)cn4)cn3)(C1)C2)[C@@H]1C[C@H](O)c2cc(C(F)(F)F)ccc2O1` [Compound 338, (2S,4S)-4-hydroxy-N-(3-{4-[5-(trifluoromethoxy)pyridin-2-yl]-1H-pyrazol-1-yl}bicyclo[1.1.1]pentan-1-yl)-6-(trifluoromethyl)-3,4-dihydro-2H-1-benzopyran-2-carboxamide] was run?
Answer: Its EC50 is under 10 nM.

Question: How did the EC50 turn out when `O=C(COc1ccc(Cl)c(F)c1)NC12CCC(c3nnc([C@H]4C[C@@H](OC(F)(F)F)C4)o3)(CC1)CC2O` (stereo partly shown) [Compound 124, 2-(4-chloro-3-fluorophenoxy)-N-(2-hydroxy-4-{5-[(1s,3s)-3-(trifluoromethoxy)cyclobutyl]-1,3,4-oxadiazol-2-yl}bicyclo[2.2.2]octan-1-yl)acetamide] was run?
Answer: Its EC50 is 10 to 50 nM.

Question: `COc1ccc2nn(C34CCC(NC(=O)COc5ccc(Cl)c(F)c5)(CC3)[C@@H](O)C4)cc2c1` [Compound 597, 2-(4-chloro-3-fluorophenoxy)-N-[(2S)-2-hydroxy-4-(5-methoxy-2H-indazol-2-yl)bicyclo[2.2.2]octan-1-yl]acetamide] was tested. Which EC50 did it give?
Answer: Its EC50 is 10 to 50 nM.

Question: How did the EC50 turn out when `O=C(NC12CC(n3cc4cc(OC(F)(F)F)ccc4n3)(C1)C2)[C@H]1C[C@@H](O)c2cc(Cl)ccc2O1` [Compound 509, (2R,4R)-6-chloro-4-hydroxy-N-{3-[5-(trifluoromethoxy)-2H-indazol-2-yl]bicyclo[1.1.1]pentan-1-yl}-3,4-dihydro-2H-1-benzopyran-2-carboxamide] was run?
Answer: The EC50 was 10 to 50 nM.

Question: `O=C(NC12CC(n3cc(OCCOC(F)F)cn3)(C1)C2)[C@H]1C[C@@H](O)c2cc(Cl)ccc2O1` [Compound 420, (2R,4R)-6-chloro-N-(3-{4-[2-(difluoromethoxy)ethoxy]-1H-pyrazol-1-yl}bicyclo[1.1.1]pentan-1-yl)-4-hydroxy-3,4-dihydro-2H-1-benzopyran-2-carboxamide] was tested. Which EC50 did it give?
Answer: The EC50 was 10 to 50 nM.

Question: `O=C(COc1ccc(Cl)c(F)c1)NC12CC(n3cc(C4CCN(CC(F)(F)F)CC4)cn3)(C1)C2` [Compound 608, 2-(4-chloro-3-fluorophenoxy)-N-(3-{4-[1-(2,2,2-trifluoroethyl)piperidin-4-yl]-1H-pyrazol-1-yl}bicyclo[1.1.1]pentan-1-yl)acetamide] was tested. Which EC50 did it give?
Answer: The EC50 was 10 to 50 nM.

Question: For `O=C(NC12CC(n3cc(OCCCOC(F)(F)F)cn3)(C1)C2)[C@H]1C[C@@H](O)c2cc(Cl)ccc2O1` [Compound 431, (2R,4R)-6-chloro-4-hydroxy-N-(3-{4-[3-(trifluoromethoxy)propoxy]-1H-pyrazol-1-yl)bicyclo[1.1.1]pentan-1-yl)-3,4-dihydro-2H-1-benzopyran-2-carboxamide], which EC50 is on record?
Answer: The EC50 was under 10 nM.

Question: With `C[C@@H](COc1cnn(C23CC(NC(=O)[C@H]4C[C@@H](O)c5cc(Cl)ccc5O4)(C2)C3)c1)OC(F)(F)F` [Compound 443, (2R,4R)-6-chloro-4-hydroxy-N-(3-{4-[(2S)-2-(trifluoromethoxy)propoxy]-1H-pyrazol-1-yl}bicyclo[1.1.1]pentan-1-yl)-3,4-dihydro-2H-1-benzopyran-2-carboxamide] as the compound, how does the EC50 read?
Answer: The EC50 was 10 to 50 nM.

Question: Which EC50 does the source give for `O=C(NC12CC(n3cc(N4CC(OC(F)(F)F)C4)cn3)(C1)C2)[C@H]1C[C@@H](O)c2cc(Cl)ccc2O1` [Compound 352, (2R,4R)-6-chloro-4-hydroxy-N-(3-{4-[3-(trifluoromethoxy)azetidin-1-yl]-1H-pyrazol-1-yl}bicyclo[1.1.1]pentan-1-yl)-3,4-dihydro-2H-1-benzopyran-2-carboxamide] here?
Answer: Its EC50 is 10 to 50 nM.
